Legend:
[1] = tested on: target cell; format: cell-based; settings: for transduction efficiency of a target cell, single enhancer (result in words): Amphotericin B 0.5-1 μg/mL, Silibinin 1 to 5 μM, Midostaurin 100 to 400 nM, Nystatin 100 μM, Natamycin 3 μM, Everolimus 1 μM, deoxyribonucleosides 0.3-2.5 mM, PEG-PLA-PEG 10 μg/mL, PEG-PCL-PEG 10 μg/mL, Resveratrol 5 μM, Prostaglandin E2 10 μM, Poloxamer synperonic F108 0.5-2 mg/mL, DMSO 1% (v/v), protamine salts 4 μg/mL; for suitability of approved therapeutic compounds as transduction enhancers (result in words): no concentration stated
From the text: The efficiency of a transduction experiment may be determined as known in the art. Preferably, transduction efficiency may be measured by determining the vector copy number (VCN) in a single cell after a transduction experiment or by measuring the average VCN in a population of cells after a transduction experiment. “Vector copy number” or “VCN” refers to the number of copies of a vector, or portion thereof, in a cell's genome. The average VCN may be determined from a population of cells or from individual cell colonies. Exemplary methods for determining VCN include any form of polymerase chain reaction (PCR), such as qPCR or digital droplet PCR, and flow cytometry. […] 479-487 or as described in Examples 1 or 5.
Several transduction enhancers and combinations of transduction enhancers reported herein result in an increase in transduction efficiency. An “increase in transduction efficiency” refers to an increase in VCN upon transduction of a cell population by a gene therapy vector in presence of a transduction enhancer compared to the absence of a transduction enhancer.

[2] = tested on: human CD34-positive HSC; assay: Lentiviral SIN vector transduction of CD34-positive HSC at MOI 1, 3 or 5 in X-Vivo 20, VCN by qPCR (Example 1); settings: each with 4 μg/mL protamine sulfate, VCN with protamine sulfate only set as 1, 1 μg/mL Amphotericin B, 1 mg/ml Lentiboost
From the text: This vector encodes human p47phox cDNA under control of the miR223 internal promoter. Cells were transduced in presence of protamine sulfate only (resulting VCN set to 100%), or in presence of protamine sulfate (PS) plus one or more compounds tested for transduction enhancer activity. After 10 to 12 days post transduction, DNA from transduced cells was isolated, and VCNs were quantified by qPCR. The increase in VCN relative to the VCN achieved upon transduction in presence of protamine sulfate only was expressed as “fold induction rel. to PS”.
Thawed cells from healthy donors were cultured in 96 well plates comprising X-Vivo 20 medium supplemented with 1% human serum albumin, 300 μg/ml stem cell factor (SCF), 300 μg/ml fins like tyrosine kinase 3 (FLT-3) ligand (Flt3-lig) and 100 μng/ml Thrombopoietin (TPO) at a density of 0.5 E6 cells/cm^2, and at a concentration of 1E6 cells/ml for 22h, optionally followed by 2h of pre-stimulation with below mentioned compounds. Afterwards, cells were incubated for transduction with the lentiviral SIN gene therapy vector for 12 h in presence of the compounds indicated below and protamine sulfate. After the 12 h transduction period, the medium was exchanged by above mentioned medium, and cells were transferred to 12-well plates in which they were cultured in a volume of 1 ml for 5 to 7 days depending on cell density. Thereafter, medium was exchanged by fresh medium, and cells were cultured in 2 ml for another 6 days. At day 12 post transduction, DNA was isolated, and vector copy number (VCN) was quantified by qPCR. All experiments were conducted in triplicates. For negative control, a triplicate of non-transduced cells was cultured as described. To determine the baseline of transduction efficacy in presence of only protamine sulfate, cells were incubated with MOI 1, MOI 3 or MOI 5 of the lentiviral SIN vector in presence of 4 μg/mL protamine sulfate.
After 10 to 12 days, non-integrated pro-viral DNA was diluted out due to the proliferation of cells in the plate and VCNs were quantified thereafter by qPCR. Every condition was tested in triplicates and the average of VCNs of triplicates for each individual condition was calculated. To evaluate the transduction enhancement activity of the tested compounds, average VCNs of cells transduced in the presence of protamine sulfate was set as 1, and enhancement of transduction was expressed as X-fold increase relative to transduction in the presence of protamine sulfate only.

[3] = tested on: Human CD34+HSC; assay: Lentiviral SIN vector transduction of CD34+ HSC at MOI 20 with or without 1% DMSO, VCN; format: cell-based; settings: 2 h pre-stimulation and 16 h incubation, X-Vivo 20, VCN without DMSO 0.915
Method: Cells were transduced in the absence and presence of 1% DMSO.
The transduction process comprised a 2 h pre-stimulation period in presence of 1% DMSO, followed by 16 h incubation of pre-stimulated cells with the gene therapy vector with an MOI 20 in presence of 1% DMSO.

[4] = MOI of 1, 5 μM Silibinin, 5 μM Resveratrol, 1 μM Everolimus, 0,4 μM Midostaurin, 100 μM Nystatin, 3 μM Natamycin

## 2,3-Dihydro-3-(4-hydroxy-3-methoxyphenyl)-2-(hydroxymethyl)-6-(3,5,7-trihydroxy-4-oxobenzopyran-2-yl)benzodioxin [Silibinin]
[1]
  transduction efficiency of a target cell, single enhancer (result in words): enhances the transduction efficiency
  suitability of approved therapeutic compounds as transduction enhancers (result in words): efficient transduction enhancers
[2]; [4]
  increase in the efficiency of lentiviral transduction (VCN), fold induction rel. to PS: (factor 4.8) fold

## C[C@@H]1[C@H](O)[C@@H](C)/C=C/C=C/C=C/C=C/C=C/C=C/C=C/[C@H](O[C@@H]2O[C@H](C)[C@@H](O)[C@H](N)[C@@H]2O)C[C@@H]2O[C@](O)(C[C@@H](O)C[C@@H](O)[C@H](O)CC[C@@H](O)C[C@@H](O)CC(=O)O[C@H]1C)C[C@H](O)[C@H]2C(=O)O [Amphotericin B]
[1]
  transduction efficiency of a target cell, single enhancer (result in words): enhances the transduction efficiency
  suitability of approved therapeutic compounds as transduction enhancers (result in words): efficient transduction enhancers
[2]; [4]
  increase in the efficiency of lentiviral transduction (VCN), fold induction rel. to PS: (factor 3) fold
[2]; MOI of 3, 1 μM Everolimus
  increase in the efficiency of lentiviral transduction (VCN), fold induction rel. to PS: (factor 2.2) fold

## C[S+](C)[O-] [DMSO, Dimethyl sulfoxide]
[1]
  transduction efficiency of a target cell, single enhancer (result in words): enhances the transduction efficiency
[3]
  vector copy number (VCN): 1.16

## CO[C@H]1C[C@@H]2CC[C@@H](C)[C@@](O)(O2)C(=O)C(=O)N2CCCC[C@H]2C(=O)O[C@H]([C@H](C)C[C@@H]2CC[C@@H](OCCO)[C@H](OC)C2)CC(=O)[C@H](C)/C=C(\C)[C@@H](O)[C@@H](OC)C(=O)[C@H](C)C[C@H](C)/C=C/C=C/C=C/1C [Everolimus]
[1]
  transduction efficiency of a target cell, single enhancer (result in words): enhances the transduction efficiency
[2]; [4]
  increase in the efficiency of lentiviral transduction (VCN), fold induction rel. to PS: (factor 13.5) fold
[2]; MOI of 3, 1 μM Everolimus
  increase in the efficiency of lentiviral transduction (VCN), fold induction rel. to PS: (factor 2.5) fold

## Nc1nc(F)nc2c1ncn2[C@@H]1O[C@H](CO)[C@@H](O)[C@@H]1O [Fludarabine]
[1]
  suitability of approved therapeutic compounds as transduction enhancers (result in words): efficient transduction enhancers

## CO[C@@H]1[C@H](N(C)C(=O)c2ccccc2)C[C@H]2O[C@]1(C)n1c3ccccc3c3c4c(c5c6ccccc6n2c5c31)C(=O)NC4 [Midostaurin]
[2]; [4]
  increase in the efficiency of lentiviral transduction (VCN), fold induction rel. to PS: (factor 4.2) fold

## C[C@@H]1C/C=C/C=C/C=C/C=C/[C@H](O[C@@H]2O[C@H](C)[C@@H](O)[C@H](N)[C@@H]2O)C[C@@H]2O[C@](O)(C[C@@H](O)C[C@H]3O[C@@H]3/C=C/C(=O)O1)C[C@H](O)[C@H]2C(=O)O [Natamycin]
[1]
  suitability of approved therapeutic compounds as transduction enhancers (result in words): efficient transduction enhancers

## C[C@@H]1[C@H](O)[C@@H](C)/C=C/C=C/CC/C=C/C=C/C=C/C=C/C(O[C@H]2O[C@H](C)[C@@H](O)[C@H](N)[C@@H]2O)CC2O[C@](O)(CC(O)C(O)CCC(O)CC(O)CC(O)CC(=O)O[C@H]1C)CC(O)C2C(=O)O (stereo partly shown) [Nystatin]
[1]
  transduction efficiency of a target cell, single enhancer (result in words): enhances the transduction efficiency
  suitability of approved therapeutic compounds as transduction enhancers (result in words): efficient transduction enhancers
[2]; [4]
  increase in the efficiency of lentiviral transduction (VCN), fold induction rel. to PS: (factor 2.6) fold

## CCCCC[C@H](O)/C=C/[C@H]1[C@H](O)CC(=O)[C@@H]1C/C=C\CCCC(=O)O [Prostaglandin E2]
[1]
  transduction efficiency of a target cell, single enhancer (result in words): enhances the transduction efficiency
